Laboratory results: patent US20200230205A1, “COMPOSITIONS AND METHODS FOR TREATING MYELIN DISORDERS” (CASE WESTERN RESERVE UNIVERSITY, priority 2017, published 2020)

Test system: MOG35-55-induced EAE mice
Assay: MOG35-55-induced EAE mouse model, daily intraperitoneal ISP
Assay type: in vivo
Description: For induction of EAE, C57BL6/J female mice at 10-week-old of age were immunized with MOG35-55 together with complete Freund's adjuvant emulsion (Hooke Laboratories, MOG35-55 EAE Induction kit, EK-2110) according to the manufacturers' instruction. Using the EAE Induction Kit result in 98% successful disease induction. All EAE animals were monitored daily and scored using a clinical scale from 0 to 5 (0: no abnormality; 1: limp tail; 2: limp tail and hind legs weakness; 3: limp tail and complete paralysis of hind legs; 4, hind leg and partial front leg paralysis; 5: moribund. Once EAE mice scored for I or 3, they were randomly recruited into treatment group and vehicle group. For treatment group, 5-7 mice were given daily intraperitoneal injections of ISP (20 μg/day), or 5% DMSO in saline, 100 μl) for Vehicle group. Experiments were blinded and animals were scored daily. For ISP Onset: ISP treatment was given at onset of sickness scored by clinical scale. For ISP Peak: ISP treatment was given at peak of sickness scored by clinical scale
LFB staining was performed according to the manufacturer's instruction (#26681, Electron Microscopy Sciences). For spinal cord sections, 20 μm coronal sections were incubated in LFB solution in 56° C. overnight and then rinsed sequentially with 95% alcohol and distilled water. The sections were then in 0.1% lithium carbonate solution and followed dehydration with a series of gradated ethanol, cleared with Histoclear and mounted. A set of serial matched sections were imaged and analyzed. Images (5 to 6 sections/animal) were captured under light microscope. The demyelinated areas (lack of LFB staining) were quantified using ImageJ software. For EAE sections, demyelinated areas were measured and represented as a percentage of total area of spinal cord. For sections of LPC model, lesion volumes were calculated by the lesion area from serial sections throughout the entire lesion based on the equation for volume of cylinder (V=lesion area×length of lesion).
Mice were anesthetized with avertin and perfusion with PBS and 4% paraformaldehyde (PFA). Brain or spinal cord were dissected and post-fixed in 4% PFA overnight at 4° C. and equilibrated in 20% sucrose. 20 μm-thick sections were pretreated with Reveal Decloaker Solution (RV 1000M, Biocare Medical) for antigen retrieval according to the manufacturer's instructions. After blocking, sections were incubated with primary antibodies overnight at 4° C. and followed by appropriate secondary antibodies conjugated with Alexa fluorescence 488 or 594. The following primary antibodies were used: MBP (SMI-99P, Covance, 1:300), NeuF200 (N4142, Sigma, 1:250), CS-56 (C8035, Sigma, 1:250), CAT301 (MAB5284, Millipore, 1:250), versican (AB 1032, Millipore, 1:250), Iba1 (019-19741, WAKO, 1:250), GFAP (MAB360, Millipore, 1:250), Olig2 (AB9610, Millipore, 1:250), CC1 (OP80, Millipore, 1:250). For each staining, at least 3 individual animals/group were examined and images were captured with a Leica DFC500 fluorescence microscope. Staining was quantified using Image J software (US National Instisutes of Health, USA). Fluorescence intensity was calculated as percentages of the mean value of the naïve controls.
For ultrastructural analyses of myelination, anesthetized animals were perfused with 2% glutaraldehyde/4% paraformaldehyde in 0.1 M sodium carcodylate buffer, PH7.4 (Electron Microscopy Sciences). Lesioned areas of the LPC or EAE-induced spinal cords from ISP-treated or control animals were dissected and post-fixed in 1% OsO4 for 2 hrs. Coronal sections ([…]) of spinal cord or brain containing corpus callosum were prepared (Leica, Vibratome), dehydrated, stained with saturated uranyl acetate and embedded in a Poly/Bed812 resin (Polysciences Inc.). The 1 μm-thick sections were cut and stained with toluidine blue, and matched areas were selected for EM analysis. […]

[1] = 41 days following EAE induction

GRKKRRQRRRCDMAEHMERLKANDSLKLSQEYESI [ISP]
demyelination baseline (LFB) vs vehicle (18 days following EAE induction): not significantly different
GFAP (reactive astrocytes) immunofluorescence [1]: significant decreases
Iba1 (microglia/macrophages) immunofluorescence [1]: significant decreases
time until functional recovery was initially observed (EAE ISP Onset group, ISP 20 μg/mouse daily i.p., days of ISP administration): 10 to 12 days
clinical score (EAE ISP Onset group, several animals, after 20-22 days of ISP (~33 days post immunization)): 0.5-1
clinical score (EAE ISP Peak group, ISP started at peak of sickness): improved significantly
percentage of CC1+ oligodendrocytes in lesions (EAE animals, 41 days): significantly enhanced
number of myelinated/remyelinated axons, electron microscopy (EAE-lesioned spinal cord vs vehicle): increase of myelinated/remyelinated axons
MBP immunostaining (ISP for 41 days vs control EAE animals): denser
lesion size, LFB myelin staining (Onset treated animals, spinal cord): especially reduced
Arginase-1 (M2 microglia marker) immunostaining (spinal cord of EAE mice): increased M2 microglia
iNOS (M microglia marker) immunostaining (spinal cord of EAE mice): decreased M microglia
MBP expression, western blot (spinal cord tissue of EAE mice): restoration of MBP expression
CSPG (Cat301, aggrecan) immunostaining (thoracic spinal cord, 41 days post-induction): markedly decreased
